Settings: Hot wire method

FC(F)(F)/C=C/Cl [(E)-1-chloro-3,3,3-trifluoroprop-1-ene]
Settings	thermal conductivity [W/m/K]
383.11 K, 7892 kPa, Liquid	0.06492
383.11 K, 8377 kPa, Liquid	0.06527
383.11 K, 20088 kPa, Liquid	0.07252
383.12 K, 7882 kPa, Liquid	0.06487
383.12 K, 8374 kPa, Liquid	0.06525
383.12 K, 20102 kPa, Liquid	0.07254
383.13 K, 1307 kPa, Liquid	0.05937
383.13 K, 1311 kPa, Liquid	0.05937
383.13 K, 35551 kPa, Liquid	0.08007
383.13 K, 35559 kPa, Liquid	0.08009
383.17 K, 33010 kPa, Liquid	0.07893
383.17 K, 33031 kPa, Liquid	0.07897
383.19 K, 6275 kPa, Liquid	0.06357
383.2 K, 884 kPa, Fluid (supercritical or subcritical phases)	0.018
383.2 K, 6276 kPa, Liquid	0.06372
383.2 K, 16814 kPa, Liquid	0.07066
383.2 K, 16828 kPa, Liquid	0.07087
383.21 K, 885 kPa, Fluid (supercritical or subcritical phases)	0.01804
383.21 K, 1198 kPa, Fluid (supercritical or subcritical phases)	0.01888
383.23 K, 1197 kPa, Fluid (supercritical or subcritical phases)	0.01891
383.23 K, 28320 kPa, Liquid	0.07674
383.24 K, 28314 kPa, Liquid	0.07674
383.25 K, 13728 kPa, Liquid	0.06881
383.26 K, 13716 kPa, Liquid	0.0688
383.3 K, 4299 kPa, Liquid	0.0621
383.3 K, 4304 kPa, Liquid	0.06207
383.31 K, 24121 kPa, Liquid	0.07463
383.31 K, 24128 kPa, Liquid	0.07464
383.34 K, 10966 kPa, Liquid	0.06703
383.35 K, 10969 kPa, Liquid	0.06723
383.36 K, 2610 kPa, Liquid	0.06058
383.36 K, 2618 kPa, Liquid	0.06063
383.4 K, 20075 kPa, Liquid	0.07247
383.4 K, 35533 kPa, Liquid	0.07987
383.4 K, 35549 kPa, Liquid	0.08004
383.41 K, 7887 kPa, Liquid	0.06484
383.41 K, 8373 kPa, Liquid	0.06523
383.41 K, 20088 kPa, Liquid	0.07251
383.42 K, 999 kPa, Fluid (supercritical or subcritical phases)	0.01831
383.42 K, 7894 kPa, Liquid	0.06491
383.42 K, 8391 kPa, Liquid	0.06529
383.43 K, 1000 kPa, Fluid (supercritical or subcritical phases)	0.01834
383.44 K, 1304 kPa, Liquid	0.05936
383.44 K, 1312 kPa, Liquid	0.05942
383.44 K, 33007 kPa, Liquid	0.07889
383.45 K, 33003 kPa, Liquid	0.0789
383.49 K, 16818 kPa, Liquid	0.07063
383.49 K, 16831 kPa, Liquid	0.07066
383.5 K, 6277 kPa, Liquid	0.06367
383.51 K, 6277 kPa, Liquid	0.06368
383.51 K, 28297 kPa, Liquid	0.07667
383.52 K, 28321 kPa, Liquid	0.07671
383.54 K, 1198 kPa, Fluid (supercritical or subcritical phases)	0.01908
383.55 K, 1198 kPa, Fluid (supercritical or subcritical phases)	0.01907
383.55 K, 13721 kPa, Liquid	0.06876
383.56 K, 13735 kPa, Liquid	0.06881
383.6 K, 24101 kPa, Liquid	0.07457
383.6 K, 24124 kPa, Liquid	0.0746
383.61 K, 4288 kPa, Liquid	0.06216
383.62 K, 4293 kPa, Liquid	0.06209
383.65 K, 10955 kPa, Liquid	0.067
383.65 K, 10973 kPa, Liquid	0.06702
383.68 K, 2612 kPa, Liquid	0.0606
383.68 K, 2620 kPa, Liquid	0.06068
383.73 K, 8375 kPa, Liquid	0.06521
383.73 K, 8381 kPa, Liquid	0.06538
383.78 K, 999 kPa, Fluid (supercritical or subcritical phases)	0.01848
401.38 K, 1794 kPa, Fluid (supercritical or subcritical phases)	0.02085
401.39 K, 1794 kPa, Fluid (supercritical or subcritical phases)	0.02077
401.48 K, 1714 kPa, Fluid (supercritical or subcritical phases)	0.0205
401.48 K, 1716 kPa, Fluid (supercritical or subcritical phases)	0.02045
401.53 K, 1623 kPa, Fluid (supercritical or subcritical phases)	0.02023
